Test results reported in patent US20060178394A1, “Pharmaceutical compositions comprising apomorphine for pulmonary inhalation” (priority 2003, published 2006).
Entries after “also recorded” stand apart in the source; their conditions may differ. Structures can show the parent of a compound that is named as a salt. Where two headings read alike, the source gives them in different places.

How the values were obtained:
[1] = Solubility of apomorphine HCl in HFA propellant systems (solution pMDI); format: physicochemical
Description: However, conventional solution pMDI techniques are not believed to be appropriate for the delivery of apomorphine or its pharmaceutically acceptable salts with HFA propellants. Specifically, apomorphine base is too unstable to be formulated using current approaches and apomorphine salts are too polar to be formulated as solutions in HFA propellants. […] Even with such a system, a solution concentration of <25 μg/dose is achieved, which is well below the effective doses described above in connection with Dry Powder Inhalers.

[2] = Phase I study: plasma pharmacokinetics of single inhaled doses (Example 15); format: in vivo, human; details: for Tmax: median values; for Cmax: healthy male volunteers
Description: A phase I, double blind, randomised, placebo controlled study was conducted examining the safety, tolerability and pharmacokinetics of single 600 μg, 900 μg and 1200 μg doses in 16 healthy male volunteers. No evaluation for efficacy was conducted during the clinical study.
Pharmacokinetic plasma sampling was conducted pre-dose and at the following intervals post dose administration: 1 minute, 3 minutes, 5 minutes, 10 minutes, 15 minutes, 30 minutes, 45 minutes, 1 hour, 1.5 hours, 2 hours, 4 hours, 8 hours, 12 hours and 24 hours.
The following pharmacokinetic parameters were derived from the plasma apomorphine concentrations by non-compartmental analysis.
It should be noted that the tmax is represented as median values.

[3] = system: patients (quality of erection in response to VSS); assay: Clinical study (Example 14): erection response to visual sexual stimulation after DPI inhalation; format: in vivo, human; details: for Number of patients with quality grade 0, No effect / Number of patients with quality grade 1, Some tumescence, no rigidity / Number of patients with quality grade 2, Some tumescence and rigidity / Number of patients with quality grade 3, Partial erection / Number of patients with quality grade 4, Full erection: ITT; for Effective? / Responding (subjects with grade 3 or 4 erection) / Response rate: ITT population; for Duration, Mean: 60 min test period
Description: During each treatment, a patient was administered the given dose and was left alone to watch an hour of visual sexual stimulation (VSS). […] After 60 minutes, the patient's were asked to rate the quality and duration of their response to VSS. In this regard, the quality of response is defined as one of […]: 0: no effect; 1: some tumescence, no rigidity; 2: some tumescence, some rigidity, but not suitable for penetration; 3: rigidity and tumescence that would enable penetration but is not complete erection; 4: complete erection.
This study was conducted in a double blind fashion, where both the healthcare professional administering the treatment and the patient were not informed as to the actual dose being administered. The patients who participated in this study were randomised.
The primary measure of efficacy, as defined in the protocol, was the proportion of subjects reporting a grade 3 or 4 erection, using general criteria defined in the International Index of Erectile Function (IIEF). Grade 3 and 4 erections are regarded as “sufficient for successful intercourse”.

[4] = Adverse event monitoring in the clinical study of Example 14; format: in vivo, human; details: for All adverse events: subjects with AE, %: safety population
Source text: Adverse events were monitored during each dosing period. The proportion of patients experiencing one or more adverse events was similar in all four treatment groups. No serious adverse events were observed and no adverse event led to the premature discontinuation of any subject. All adverse events were mild or moderate in severity and occurred in a small percentage of the groups treated. Table 9 is a summary of all treatment related adverse events, and Table 10 breaks treatment-related adverse events down by body system.

[5] = intranasal delivery, clinical setting; Nastech studies; cited from earlier work
[6] = Drug retention and degradation in PE and PVC blisters
[7] = Blood analysis 70 minutes after inhalation (Example 14); format: in vivo; details: human, inhaled, 34 patients
Description: For each patient, blood samples were taken 70 minutes after inhalation. The blood samples were analysed, and the blood levels for 400 and 800 microgram doses of apomorphine for each of the 34 patients that completed the test are set forth in Table 11 in nanograms per millilitre. It should be appreciated from the data discussed in Example 15 below that these blood samples were actually taken long after the plasma concentration peak.

[8] = male, human, plasma, inhaled or intranasal, 600 ug, 600 μg single inhaled dose, mean ± standard error
[9] = male, human, plasma, inhaled or intranasal, 900 ug, 900 μg single inhaled dose, mean ± standard error
[10] = male, human, plasma, inhaled or intranasal, 1200 ug, 1200 μg single inhaled dose, mean ± standard error
[11] = 200 μg inhaled, grade 3 and 4 responders
[12] = 400 μg inhaled, listed as apomorphine HCl, hydrochloride
[13] = 400 μg inhaled, grade 3 and 4 responders
[14] = 800 μg inhaled, listed as apomorphine HCl, hydrochloride

CN1CCc2cccc3c2[C@H]1Cc1ccc(O)c(O)c1-3 [Apomorphine HCl, apomorphine hydrochloride]
Ethanol required for suitable or acceptable solubility ([1]; HFA propellant solution pMDI systems): at least 50%
Solution concentration achieved ([1]; HFA propellant system with at least 50% ethanol): < 25 μg/dose
AUC0-∞ ([2]; 600 μg single inhaled dose, mean ± standard error): 176.4 ± 26.9 ng·min/mL
Tmax ([2]; 900 μg single inhaled dose, hydrochloride): 1 min
Tmax ([2]; 1200 μg single inhaled dose, hydrochloride): 1 min
Dose proportionality for Cmax, AUC0-∞ and AUC0-t ([2]; 600, 900, 1200 μg inhaled): demonstrated
AUC(0-inf) ([2]; male, human, plasma, inhaled or intranasal, 600 ug, 600 μg inhaled, comparison table with Uprima): 2.2 ng·h/mL
Cmax [2, 8]: 3.5 to 4.9 ng/mL
AUC(0-t) [2, 8]: 2.23 ng·h/mL
Tmax ([2]; male, human, plasma, inhaled or intranasal, 600 ug, 600 μg single inhaled dose, read-out: tmax (converted)): 3 min
AUC(0-inf) ([2]; male, human, plasma, inhaled or intranasal, 900 ug, 900 μg inhaled, comparison table with Uprima): 3.4 ng·h/mL
Cmax [2, 9]: 7.4 to 8.8 ng/mL
AUC(0-inf) [2, 9]: 3.84 ng·h/mL
AUC(0-t) [2, 9]: 3.42 ng·h/mL
Tmax ([2]; male, human, plasma, inhaled or intranasal, 900 ug, 900 μg single inhaled dose, read-out: tmax (converted)): 1 min
AUC(0-inf) ([2]; male, human, plasma, inhaled or intranasal, 1200 ug, 1200 μg inhaled, comparison table with Uprima): 5.5 ng·h/mL
Cmax [2, 10]: 9.2 to 16.2 ng/mL
AUC(0-inf) [2, 10]: 5.5 ng·h/mL
AUC(0-t) [2, 10]: 4.93 ng·h/mL
Tmax ([2]; male, human, plasma, inhaled or intranasal, 1200 ug, 1200 μg single inhaled dose, read-out: tmax (converted)): 1 min
Duration ([3]; 200 μg inhaled): 24 min
Duration, Max ([3]; 200 μg inhaled): 47 min
Duration, Median ([3]; 200 μg inhaled): 31.5 min
Onset of an erection in one patient ([3]; 200 μg inhaled, FIG. 12): about 40 minutes
Number of patients with quality grade 0, No effect ([3]; 200 μg inhaled): 11
Number of patients with quality grade 1, Some tumescence, no rigidity ([3]; 200 μg inhaled): 10
Number of patients with quality grade 2, Some tumescence and rigidity ([3]; 200 μg inhaled): 6
Number of patients with quality grade 3, Partial erection ([3]; 200 μg inhaled): 6
Number of patients with quality grade 4, Full erection ([3]; 200 μg inhaled): 2
Effective? ([3]; 200 μg inhaled): No
Responding (subjects with grade 3 or 4 erection) ([3]; 200 μg inhaled, 35 evaluated): 8
Response rate ([3]; 200 μg inhaled, hydrochloride): 22.9%
Duration, Mean ([3]; 200 μg inhaled, N 8): 33.3 min
Onset, Max [3, 11]: 20 min post dose
Onset, Min [3, 11]: 8 min post dose
Onset, Mean ([3]; 200 μg inhaled, grade 3 and 4 responders, N 8): 13 min post dose
Duration ([3]; 400 μg inhaled): 4 min
Duration, Max ([3]; 400 μg inhaled): 54 min
Duration, Median ([3]; 400 μg inhaled): 38 min
Onset of an erection in one patient ([3]; 400 μg inhaled, FIG. 13): about 3 minutes
Number of patients with quality grade 0, No effect ([3]; 400 μg inhaled): 8
Number of patients with quality grade 1, Some tumescence, no rigidity ([3]; 400 μg inhaled): 6
Number of patients with quality grade 2, Some tumescence and rigidity ([3]; 400 μg inhaled): 3
Number of patients with quality grade 3, Partial erection ([3]; 400 μg inhaled): 8
Number of patients with quality grade 4, Full erection ([3]; 400 μg inhaled): 8
Responding (subjects with grade 3 or 4 erection) ([3]; 400 μg inhaled, 33 evaluated): 16
Effective? ([3]; 400 μg inhaled, listed as apomorphine HCL, hydrochloride): effective
Effective? [3, 12]: effective and Yes
Response rate [3, 12]: 48.5%
Duration, Mean ([3]; 400 μg inhaled, N 16): 31.1 min
Onset, Max [3, 13]: 28 min post dose
Onset, Median [3, 13]: 8 min post dose
Onset, Mean ([3]; 400 μg inhaled, grade 3 and 4 responders, N 16): 11 min post dose
Onset, Min ([3]; 400 μg inhaled, grade 3 and 4 responders, hydrochloride): 3 min post dose
Duration ([3]; 800 μg inhaled): 6 min
Duration, Max ([3]; 800 μg inhaled): 54 min
Duration, Median ([3]; 800 μg inhaled): 36 min
Onset of an erection in one patient ([3]; 800 μg inhaled, FIG. 14): about 4 minutes
Number of patients with quality grade 1, Some tumescence, no rigidity ([3]; 800 μg inhaled): 3
Number of patients with quality grade 2, Some tumescence and rigidity ([3]; 800 μg inhaled): 7
Number of patients with quality grade 3, Partial erection ([3]; 800 μg inhaled): 6
Number of patients with quality grade 4, Full erection ([3]; 800 μg inhaled): 14
Responding (subjects with grade 3 or 4 erection) ([3]; 800 μg inhaled, 34 evaluated): 20
Effective? ([3]; 800 μg inhaled, listed as apomorphine HCL, hydrochloride): effective
Effective? [3, 14]: effective and Yes
Response rate [3, 14]: 58.8%
Duration, Mean ([3]; 800 μg inhaled, N 19): 31.2 min
Onset, Max ([3]; 800 μg inhaled, grade 3 and 4 responders): 17 min post dose
Onset, Mean ([3]; 800 μg inhaled, grade 3 and 4 responders, N 19): 10 min post dose
Onset, Min ([3]; 800 μg inhaled, grade 3 and 4 responders, hydrochloride): 3 min post dose
Lowest inhaled dose at which the clinical effect is observed ([3]; pulmonary inhalation): 400 µg
Treatment-related AE: Cough, % ([4]; 200 μg inhaled): 3%
Treatment-related AE: Dizziness, % ([4]; 200 μg inhaled): 3%
Treatment-related AE: Nasal congestion, % ([4]; 200 μg inhaled): 3%
Treatment-related AE: Nervous system disorders, % ([4]; 200 μg inhaled): 3%
Treatment-related AE: Respiratory, thoracic & mediastinal disorders, % ([4]; 200 μg inhaled): 3%
Treatment-related AE: Sneezing, % ([4]; 200 μg inhaled): 3%
Treatment-related adverse events: subjects with AE, % ([4]; 200 μg inhaled): 6%
All adverse events: subjects with AE, % ([4]; 200 μg inhaled): 9%
Treatment-related AE: Dry throat, % ([4]; 400 μg inhaled): 3%
Treatment-related AE: Pharyngolaryngeal pain, % ([4]; 400 μg inhaled): 6%
Treatment-related AE: Respiratory, thoracic & mediastinal disorders, % ([4]; 400 μg inhaled): 9%
Treatment-related adverse events: subjects with AE, % ([4]; 400 μg inhaled): 9%
All adverse events: subjects with AE, % ([4]; 400 μg inhaled): 9%
Treatment-related AE: Dizziness, % ([4]; 800 μg inhaled): 6%
Treatment-related AE: Gastrointestinal disorders, % ([4]; 800 μg inhaled): 3%
Treatment-related AE: Nausea, % ([4]; 800 μg inhaled): 3%
Treatment-related AE: Nervous system disorders, % ([4]; 800 μg inhaled): 6%
Treatment-related adverse events: subjects with AE, % ([4]; 800 μg inhaled): 6%
All adverse events: subjects with AE, % ([4]; 800 μg inhaled, hydrochloride): 6%
Dose that can be administered without causing unacceptable side effects [5]: more than 2 mg
Mean drug retention, PE blisters ([6]; DUSA): 43.6 µg
Mean drug retention, PVC blisters ([6]; DUSA): 12.9 µg
Mean drug retention, PE blisters ([6]; Initial stability): 44.7 µg
Mean drug retention, PVC blisters ([6]; Initial stability): 13.9 µg
Chemical stability in the presence of polyethylene (PE blisters) ([6]; initial stability data, related substance peaks after 1 month, hydrochloride): chemically degrades; also recorded: degradation of the formulated product takes place
concentration at 70 min ([7]; 400 μg, 400 μg inhaled, read-out: Blood level 70 minutes after dosing, Mean): 0.215 ng/mL
concentration at 70 min ([7]; 400 μg, 400 μg inhaled, read-out: Blood level 70 minutes after dosing, Median): 0.217 ng/mL
concentration at 70 min ([7]; 800 μg, 800 μg inhaled, read-out: Blood level 70 minutes after dosing, Mean): 0.608 ng/mL
concentration at 70 min ([7]; 800 μg, 800 μg inhaled, read-out: Blood level 70 minutes after dosing, Median): 0.567 ng/mL
